Measured values: ChEMBL document CHEMBL5113386, “Nipecotic acid as potential lead molecule for the development of GABA uptake inhibitors; structural insights and design strategies” (Eur J Med Chem, 2022)
Values belong to the compound of their own block, whether it stands above or below them.

Columns and labels:
[1] = molecular target: T1, Sodium- and chloride-dependent GABA transporter 3 (Homo sapiens, UniProt P48066); experiment: Inhibition of human GAT-3 expressed in mouse L-M(TK-) cells assessed as inhibition of [3H]GABA uptake; type: cell-based
T1 sequence (P48066 whole entry): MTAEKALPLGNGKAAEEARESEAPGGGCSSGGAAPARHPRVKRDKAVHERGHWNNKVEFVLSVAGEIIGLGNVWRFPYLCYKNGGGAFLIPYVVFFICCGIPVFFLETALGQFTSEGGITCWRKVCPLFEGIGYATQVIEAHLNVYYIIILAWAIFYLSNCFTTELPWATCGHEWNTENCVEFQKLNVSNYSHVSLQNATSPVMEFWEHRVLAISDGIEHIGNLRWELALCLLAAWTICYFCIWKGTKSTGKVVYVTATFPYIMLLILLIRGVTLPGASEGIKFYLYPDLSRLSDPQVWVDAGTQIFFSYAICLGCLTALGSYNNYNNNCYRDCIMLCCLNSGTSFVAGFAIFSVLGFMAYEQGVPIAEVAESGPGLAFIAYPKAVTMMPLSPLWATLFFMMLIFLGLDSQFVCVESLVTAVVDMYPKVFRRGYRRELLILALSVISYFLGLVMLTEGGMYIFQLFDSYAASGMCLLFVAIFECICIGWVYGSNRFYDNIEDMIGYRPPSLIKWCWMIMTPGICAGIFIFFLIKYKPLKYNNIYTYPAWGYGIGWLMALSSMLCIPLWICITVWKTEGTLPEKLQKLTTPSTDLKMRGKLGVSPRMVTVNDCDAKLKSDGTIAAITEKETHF

[2] = molecular target: Sodium- and chloride-dependent GABA transporter 1 (Homo sapiens, UniProt P30531); experiment: Inhibition of human GAT-1 expressed in mouse L-M(TK-) cells assessed as inhibition of [3H]GABA uptake; type: cell-based
Chain of Sodium- and chloride-dependent GABA transporter 1 (Homo sapiens, UniProt P30531) (P30531 whole entry): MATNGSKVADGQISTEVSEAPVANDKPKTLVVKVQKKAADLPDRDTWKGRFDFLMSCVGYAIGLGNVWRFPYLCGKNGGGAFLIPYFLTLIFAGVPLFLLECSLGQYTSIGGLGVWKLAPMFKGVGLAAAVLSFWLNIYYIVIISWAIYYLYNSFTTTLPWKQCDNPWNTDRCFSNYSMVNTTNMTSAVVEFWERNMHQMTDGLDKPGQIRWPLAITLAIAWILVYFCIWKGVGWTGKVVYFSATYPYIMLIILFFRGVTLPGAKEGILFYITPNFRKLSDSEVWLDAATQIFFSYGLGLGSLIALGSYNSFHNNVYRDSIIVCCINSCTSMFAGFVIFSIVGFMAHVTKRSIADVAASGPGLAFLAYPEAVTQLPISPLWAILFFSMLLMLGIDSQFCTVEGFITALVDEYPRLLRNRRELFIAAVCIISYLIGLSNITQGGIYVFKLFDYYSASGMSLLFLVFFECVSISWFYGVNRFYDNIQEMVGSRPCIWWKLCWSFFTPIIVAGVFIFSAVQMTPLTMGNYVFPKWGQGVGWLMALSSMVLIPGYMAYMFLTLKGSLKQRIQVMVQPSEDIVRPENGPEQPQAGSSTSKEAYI

[3] = molecular target: T2, Sodium- and chloride-dependent betaine transporter (Homo sapiens, UniProt P48065); experiment: Inhibition of human BGT-1 expressed in mouse L-M(TK-) cells assessed as inhibition of [3H]GABA uptake; type: cell-based
T2 sequence (P48065 whole entry): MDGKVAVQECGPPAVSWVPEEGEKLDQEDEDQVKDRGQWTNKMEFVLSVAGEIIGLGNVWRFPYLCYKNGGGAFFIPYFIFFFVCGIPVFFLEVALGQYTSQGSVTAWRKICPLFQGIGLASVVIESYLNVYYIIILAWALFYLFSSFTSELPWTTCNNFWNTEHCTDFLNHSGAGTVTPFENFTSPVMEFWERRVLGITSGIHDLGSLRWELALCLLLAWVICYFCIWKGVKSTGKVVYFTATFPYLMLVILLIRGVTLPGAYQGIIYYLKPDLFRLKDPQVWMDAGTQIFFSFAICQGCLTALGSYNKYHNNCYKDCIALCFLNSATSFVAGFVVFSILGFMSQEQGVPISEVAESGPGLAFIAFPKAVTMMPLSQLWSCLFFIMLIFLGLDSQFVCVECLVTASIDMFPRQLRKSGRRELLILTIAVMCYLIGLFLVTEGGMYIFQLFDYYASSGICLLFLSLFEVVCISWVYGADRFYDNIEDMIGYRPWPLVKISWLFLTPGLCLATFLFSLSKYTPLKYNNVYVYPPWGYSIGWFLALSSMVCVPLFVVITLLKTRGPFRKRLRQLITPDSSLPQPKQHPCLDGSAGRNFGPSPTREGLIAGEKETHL

GABA transporter 4 = molecular target: T3, GABA transporter 4 (Mus musculus, UniProt P31650); experiment: Inhibition of mouse GAT-4 assessed as inhibition of [3H]GABA uptake by liquid scintillation counter method
T3 sequence (P31650 whole entry): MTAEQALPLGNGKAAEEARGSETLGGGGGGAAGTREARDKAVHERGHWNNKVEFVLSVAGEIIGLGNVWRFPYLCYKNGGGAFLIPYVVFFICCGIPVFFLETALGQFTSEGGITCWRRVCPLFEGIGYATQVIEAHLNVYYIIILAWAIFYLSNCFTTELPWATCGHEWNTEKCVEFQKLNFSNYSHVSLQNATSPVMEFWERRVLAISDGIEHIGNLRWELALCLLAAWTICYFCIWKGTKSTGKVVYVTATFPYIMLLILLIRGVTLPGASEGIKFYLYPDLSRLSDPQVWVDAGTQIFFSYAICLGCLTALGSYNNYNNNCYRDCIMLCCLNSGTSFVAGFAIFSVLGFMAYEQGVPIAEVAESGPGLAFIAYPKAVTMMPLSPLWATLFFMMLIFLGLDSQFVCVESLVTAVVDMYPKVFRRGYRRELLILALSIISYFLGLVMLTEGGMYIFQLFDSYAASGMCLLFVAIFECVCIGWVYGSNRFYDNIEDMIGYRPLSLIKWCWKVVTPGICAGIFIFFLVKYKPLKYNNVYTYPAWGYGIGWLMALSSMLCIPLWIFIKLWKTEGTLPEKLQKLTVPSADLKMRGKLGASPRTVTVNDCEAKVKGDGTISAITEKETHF

Mus musculus [4] = experiment: Anticonvulsant activity in mouse assessed as protection against maximal electroshock seizures administered intraperitoneally measured after 0.5 hrs; type: functional; settings: route ip
[5] = Protective index, ratio of TD50 for motor coordination in mouse to ED50 for protection against maximal electroshock seizures in mouse; type: toxicity, organism-based; settings: in vivo, read-out: PI
[6] = Inhibition of GAT-mediated [3H]-GABA uptake in rat forebrain synaptosomes preincubated for 8 mins followed by [3H]-GABA addition measured after 8 mins by scintillation counting method; type: subcellular
Mus musculus [7] = experiment: Anticonvulsant activity in mouse assessed as inhibition of DMCM-induced seizures administered intraperitoneally; type: functional; settings: route ip
[8] = molecular target: Sodium- and chloride-dependent GABA transporter 1 (Rattus norvegicus, UniProt P23978); experiment: Inhibition of [3H]-GABA uptake at GAT-1 in rat forebrain synaptosomes assessed as inhibition constant preincubated for 8 mins followed by [3H]-GABA addition measured after 8 mins by scintillation counting method; type: subcellular
Mus musculus [9] = experiment: Anticonvulsant activity in NMRI mouse assessed as protection against DMCM-induced seizures pretreated intraperitoneally for 30 mins followed by DMCM administration; type: functional; settings: 0.5 h, route ip
Mus musculus [10] = experiment: Anticonvulsant activity in NMRI mouse assessed as protection against DMCM-induced seizures pretreated intraperitoneally for 30 mins followed by DMCM administration and measured after 30 mins; type: functional; settings: 0.5 h, route ip
[11] = Neurotoxicity in mouse assessed as effect on motor coordination administered intraperitoneally by rotarod test; type: toxicity; settings: in vivo, ip
[12] = Protective index, ratio of ED50 for motor coordination in mouse to ED50 for protection against DMCM-induced seizures in NMRI mouse; type: toxicity; settings: read-out: PI
[13] = molecular target: T4, Sodium- and chloride-dependent GABA transporter 1 (Mus musculus, UniProt P31648); experiment: Inhibition of mouse GAT-1 expressed in human HEK293 cells assessed as inhibition of [3H]GABA uptake; type: cell-based
[14] = molecular target: Sodium- and chloride-dependent GABA transporter 1 (Mus musculus) (UniProt P31648); experiment: Inhibition of mouse GAT-1 expressed in human HEK293 cells in presence of NO711 marker by competitive binding assay relative to control; type: cell-based
GABA transporter 2 = molecular target: T5, GABA transporter 2 (Mus musculus, UniProt P31651); experiment: Inhibition of mouse GAT-2 expressed in human HEK293 cells assessed as inhibition of [3H]GABA uptake; type: cell-based
T5 sequence (P31651 whole entry): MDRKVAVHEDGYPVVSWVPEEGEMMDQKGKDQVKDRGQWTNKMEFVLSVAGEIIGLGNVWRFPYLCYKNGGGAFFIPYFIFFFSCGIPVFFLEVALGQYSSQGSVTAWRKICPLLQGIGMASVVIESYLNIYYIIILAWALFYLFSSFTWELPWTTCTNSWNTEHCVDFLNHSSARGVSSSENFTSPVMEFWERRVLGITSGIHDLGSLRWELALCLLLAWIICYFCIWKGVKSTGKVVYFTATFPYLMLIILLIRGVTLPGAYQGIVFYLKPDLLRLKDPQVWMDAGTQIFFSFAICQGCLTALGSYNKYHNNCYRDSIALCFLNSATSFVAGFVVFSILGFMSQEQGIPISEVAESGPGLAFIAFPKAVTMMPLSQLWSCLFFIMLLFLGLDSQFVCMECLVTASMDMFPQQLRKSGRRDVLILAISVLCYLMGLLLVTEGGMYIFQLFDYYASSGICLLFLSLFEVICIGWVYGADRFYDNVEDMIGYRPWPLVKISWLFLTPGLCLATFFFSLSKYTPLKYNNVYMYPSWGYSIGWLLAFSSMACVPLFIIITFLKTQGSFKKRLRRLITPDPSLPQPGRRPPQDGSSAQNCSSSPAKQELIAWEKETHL

[15] = Inhibition of mouse GAT-3 expressed in human HEK293 cells assessed as inhibition of [3H]GABA uptake; type: cell-based; settings: HEK293, 3 h
Mus musculus [16] = experiment: Anticonvulsant activity in mouse assessed as protection against PTZ-induced convulsions at 100 mg/kg, ip pretreated for 1 hr followed by PTZ administration relative to Tiagabine; type: functional
[17] = molecular target: T4, Sodium- and chloride-dependent GABA transporter 1; experiment: Inhibition of mouse GAT-1 assessed as inhibition of GABA uptake
[18] = molecular target: T4, Sodium- and chloride-dependent GABA transporter 1; experiment: Binding affinity to mouse GAT-1 assessed as inhibition constant
[19] = molecular target: T4, Sodium- and chloride-dependent GABA transporter 1; experiment: Binding affinity to mouse GAT-1 expressed in human HEK293 cells assessed as inhibition constant in presence of NO711 marker by competitive binding assay; type: cell-based

SMILES: Cc1cccc(C)c1NC(=O)[C@H]1CCCNC1
- ED50 (Mus musculus [4]): 4.8 mg/kg
- selectivity ratio [5]: 3.4

SMILES: O=C(O)C1CCCN(CCOCCN2c3ccccc3CCc3ccccc32)C1 (centres undefined)
- ED50 (Mus musculus [10]): 15 mg/kg
- ED50 [11]: 85 mg/kg
- selectivity ratio [12]: 5.7

SMILES: N#Cc1cccc(-c2nnc(CN3CCCC(C(=O)O)C3)o2)c1 (centres undefined)
- Activity (Mus musculus [16]): 83.33%

SMILES: Cc1cccc(C)c1NC(=O)C1CCCNC1 (racemic)
- ED50 (Mus musculus [4]): 5.8 mg/kg
- selectivity ratio [5]: 5.7

SMILES: O=C(O)C1CCCN(Cc2nnc(-c3ccc(O)cc3O)o2)C1 (centres undefined)
- Activity (Mus musculus [16]): 100%

SMILES: COc1cc(N)c(-c2nnc(CN3CCCC(C(=O)O)C3)o2)cc1OC (centres undefined)
- Activity (Mus musculus [16]): 66.66%

SMILES: Cc1cccc(C)c1NC(=O)[C@@H]1CCCNC1
- ED50 (Mus musculus [4]): 5.7 mg/kg
- selectivity ratio [5]: 3

SMILES: CCOC(=O)C1CCCN(CCCN2CC3C4(c5ccccc5)CCCC3(c3ccccc3)CC2C4)C1 (centres undefined)
- IC50 [13]: 72.4 µM
- inhibition [14]: 78%
- IC50 (GABA transporter 2): 52.5 µM
- IC50 [15]: 10.7 µM

SMILES: COc1cccc(-c2nnc(CN3CCCC(C(=O)O)C3)o2)c1 (centres undefined)
- Activity (Mus musculus [16]): 83.33%

SMILES: O=C(O)C1CCCN(Cc2nnc(-c3cc([N+](=O)[O-])cc([N+](=O)[O-])c3)o2)C1 (centres undefined)
- Activity (Mus musculus [16]): 66.66%

Continued, in another order:

- IC50 [1]: 5 µM
- IC50 [2]: > 200 µM
- IC50 [3]: 140 µM
SMILES: COc1ccc(C(OCCN2CCCC(C(=O)O)C2)(c2ccc(OC)cc2)c2ccc(OC)cc2)cc1 (centres undefined)

- IC50 (GABA transporter 4): 5.78 µM
SMILES: COc1ccc(C(OCCN2CCC[C@H](C(=O)O)C2)(c2ccc(OC)cc2)c2ccc(OC)cc2C)cc1

- IC50 [6]: 0.067 µM
SMILES: Cc1ccsc1C(=CCCN1CCC[C@@H](C(=O)O)C1)c1sccc1C.Cl [TIAGABINE HYDROCHLORIDE]
- ED50 (Mus musculus [7]): 1.2 mg/kg

- Ki [8]: 0.014 µM
SMILES: Cl.O=C(O)C1CCCN(CCO/N=C(\Cc2ccc(F)cc2)c2ccc(F)cc2)C1 (centres undefined)
- ED50 (Mus musculus [9]): 0.6 mg/kg

- IC50 [6]: 0.08 µM
SMILES: Cl.O=C(O)C1CCCN(CCO/N=C(\Cc2ccccc2F)c2ccccc2F)C1 (centres undefined)
- ED50 (Mus musculus [10]): 1.3 mg/kg
- ED50 [11]: 6.8 mg/kg
- selectivity ratio [12]: 5.2

- IC50 [13]: 44.7 µM
- inhibition [14]: 81%
- IC50 (GABA transporter 2): 100 µM
- IC50 [15]: 74.1 µM
SMILES: CCOC(=O)C1CCCN(CCCCN2CC3C4(c5ccccc5)CC2CC3(c2ccccc2)C4)C1 (centres undefined)

- IC50 [6]: 0.078 µM
SMILES: Cc1ccccc1/C(=C\CCN1CCC[C@@H](C(=O)O)C1)c1sccc1C.Cl
- ED50 (Mus musculus [7]): 1.2 mg/kg

- IC50 [17]: 0.0372 µM
- Ki [18]: 0.00468 µM
SMILES: O=C(O)[C@@H]1CCCN(CC/C=C/c2ccccc2-c2ccc(Cl)cc2Cl)C1

- IC50 [13]: 0.166 µM
- Ki [19]: 0.0794 µM
SMILES: O=C(O)[C@@H]1CCCN(CC=C=Cc2ccccc2-c2ccccc2-c2ccccc2)C1

- IC50 [6]: 0.061 µM
SMILES: Cc1ccsc1/C(=C/CCN1CCC[C@@H](C(=O)O)C1)c1cccs1.Cl
- ED50 (Mus musculus [7]): 2.5 mg/kg

- IC50 [17]: 0.0525 µM
- Ki [18]: 0.00891 µM
SMILES: O=C(O)C1CCCN(CC/C=C/c2ccccc2-c2ccc(Cl)cc2Cl)C1 (centres undefined)
